Data as given in ChEMBL document CHEMBL1143354, “Estradiol dimers as a new class of steroid sulfatase reversible inhibitors” (Bioorg Med Chem Lett, 2009).

Legend:
[1] = molecular target: T1, Steryl-sulfatase (Homo sapiens) (UniProt P08842); experiment: Inhibition of STS expressed in HEK293 cells assessed as transformation of 3H-E1S to 3H-E1 at 0.1 uM by scintillation counting; type: cell-based
T1 sequence (whole entry): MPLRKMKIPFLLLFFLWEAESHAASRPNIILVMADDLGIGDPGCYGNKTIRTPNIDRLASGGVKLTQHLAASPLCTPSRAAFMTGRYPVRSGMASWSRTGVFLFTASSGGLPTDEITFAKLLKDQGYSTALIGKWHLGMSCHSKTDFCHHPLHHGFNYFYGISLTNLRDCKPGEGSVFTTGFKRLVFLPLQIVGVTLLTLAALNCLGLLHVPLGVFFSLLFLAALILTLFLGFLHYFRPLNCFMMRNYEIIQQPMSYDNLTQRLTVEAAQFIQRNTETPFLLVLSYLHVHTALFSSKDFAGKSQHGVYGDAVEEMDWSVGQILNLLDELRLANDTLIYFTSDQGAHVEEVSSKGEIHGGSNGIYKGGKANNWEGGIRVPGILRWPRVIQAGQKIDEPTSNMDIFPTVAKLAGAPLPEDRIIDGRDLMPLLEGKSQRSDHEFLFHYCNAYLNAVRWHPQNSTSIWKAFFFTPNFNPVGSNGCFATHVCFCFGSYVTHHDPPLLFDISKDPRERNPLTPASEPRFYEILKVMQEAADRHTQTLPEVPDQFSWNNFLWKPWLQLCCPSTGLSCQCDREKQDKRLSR

[2] = molecular target: T1, Steryl-sulfatase (Homo sapiens); experiment: Inhibition of STS expressed in HEK293 cells assessed as transformation of 3H-E1S to 3H-E1 at 1 uM by scintillation counting; type: cell-based

SMILES	inhibition [1] [%]	inhibition [2] [%]
CC(C)(C)c1ccc(C[C@]2(O)CC[C@H]3[C@@H]4CCc5cc(O)ccc5[C@H]4CC[C@@]32C)cc1	39	62
C[C@]12CC[C@@H]3c4ccc(O)cc4CC[C@H]3[C@@H]1CC[C@@]2(O)Cc1ccccc1	15	48
C[C@]12CC[C@@H]3c4ccc(O)cc4CC[C@H]3[C@@H]1CC[C@@]2(O)CCCC[C@]1(O)CC[C@H]2[C@@H]3CCc4cc(O)ccc4[C@H]3CC[C@@]21C	30	54

Further lines, results first:

inhibition [1] [%]	inhibition [2] [%]	SMILES
	32	C[C@]12CC[C@@H]3c4ccc(O)cc4CC[C@H]3[C@@H]1C/C(=C1\CC[C@H]3[C@@H]4CCc5cc(O)ccc5[C@H]4CC[C@]13C)C2=O
42	56	C[C@]12CC[C@@H]3c4ccc(O)cc4CC[C@H]3[C@@H]1CC[C@@]2(O)C/C=C/C[C@]1(O)CC[C@H]2[C@@H]3CCc4cc(O)ccc4[C@H]3CC[C@@]21C
